# Assay results reported in paper PMC8282797, “Strictly regulated agonist-dependent activation of AMPA-R is the key characteristic of TAK-653 for robust synaptic responses and cognitive improvement” (Scientific Reports, 2021).
# Legend:
# AMPA-R = assay: Ca2+ influx assay using rat primary hippocampal neurons; assay type: cell-based
# Method: Ca^2+ influx assay using primary neurons was performed as previously described. After 5 days of culture, the cells plated on poly-D-lysine coated 96-well plates (Corning Incorporated) at 2 × 10^4 or 5 × 10^4 cells/well were used for experiments with PF-04958242 or TAK-653, respectively. Fluorescent calcium indicator dye solution (Calcium4 assay Kit, Dojindo, Kumamoto, Japan) in Ca^2+ reaction buffer (DMEM, HEPES and BSA) containing Probenecid (Dojindo) was added and incubated for 60 min in 5% CO2 at 37 °C. After washing once, the relative increases in intracellular Ca^2+ levels stimulated by compounds in the presence and absence of AMPA were monitored. Details are described in the Supplementary Information.
# Primary cultures of hippocampal neuronal cells were prepared from fetal Sprague-Dawley rats at 19 days of gestation. Rat embryos were decapitated and their whole brains were isolated. Hippocampi were dissected in ice-cold Hanks' Balanced Salt Solutions (HBSS) under a microscope and then dispersed into cells using a neural cell dispersion kit (Sumitomo Bakelite Co., Ltd., Tokyo, Japan). The dissociated cells were suspended in Neurobasal medium containing B27 supplement (Thermo Fisher Scientific Inc.), 2 mM L-glutamine (Lonza, Basel, Switzerland), 100 U/mL penicillin (Lonza), 100 μg/mL streptomycin (Lonza) and 20 μg/mL gentamicin sulfate (Lonza). The cells were plated on poly-D-lysine coated 96-well plates (Corning Incorporated) for Ca^2+ influx assay or on poly-L-lysine coated 96-well plates (Sumitomo Bakelite) for measurement of BDNF protein levels and cultured in a humidified CO2 incubator with 5% CO2 at 37°C.
# After 5 days of culture, the cells at 2×10^4 or 5×10^4 cells/well were used for experiments with PF-04958242 or TAK-653, respectively. For TAK-653, after removal of culture medium, 75 µL of fluorescent calcium indicator dye solution (Calcium4 assay Kit, Dojindo, Kumamoto, Japan) in Ca^2+ reaction buffer (DMEM, 10 mM HEPES and 0.1% BSA) containing 1.25 mM Probenecid (Dojindo) was added and incubated for 60 min in 5% CO2 at 37°C and washed once using 75 µL of fluorescent calcium indicator dye solution. After addition of 75 µL of fluorescent calcium indicator dye solution to each well again, the relative increases in intracellular Ca^2+ levels by compounds in the presence and absence of 5 μM AMPA were monitored for 8.5 min by fluorometric imaging plate reader. Activity of the compound was defined as fluorescence intensity integrated over the entire period of measurement. Intensity of 0% was defined as activity in the presence of only DMSO, while 100% was defined as activity in the presence of 5 μM AMPA and 10 μM HBT1. For PF-04958242, after removal of culture medium, 90 µL of fluorescent calcium indicator dye solution (Calcium4 assay Kit, Dojindo) in Ca^2+ reaction buffer (DMEM, 20 mM HEPES and 0.1% BSA) containing 2.5 mM Probenecid (Dojindo) was added and incubated for 60 min in 5% CO2 at 37°C. After addition of 90 µL of fluorescent calcium indicator dye solution to each well again, the relative increases in intracellular Ca^2+ levels by compounds in the presence and absence of 1 μM AMPA were monitored for 2 min in a microplate reader (CellLux, PerkinElmer, Waltham, MA, USA). Activity of the compound was defined as fluorescence intensity integrated over the entire period of measurement. 100% was defined as activity in the presence of 1 μM AMPA and 10 μM HBT1, while intensity of 0% was defined as activity in the presence of 1 μM AMPA or only DMSO for potentiator effect or agonistic effect, respectively. EC50 values were calculated by logistic regression analysis.
# naïve rats = assay: Novel object recognition (NOR) test; assay type: in vivo, rat; conditions: p.o., rats
# Method: NOR tests were performed using male Long-Evans rats at 6 weeks old as previously described, with some modifications. On day 1, rats were allowed to habituate to the empty test box (a gray-colored polyvinyl chloride box (40 × 40 × 50 cm)) for 10 min individually. Testing comprised two 3-min trials called the acquisition trial and the retention trial that were separated by 48 h inter-trial intervals (ITIs). On day 2, in the acquisition trial, rats were allowed to explore two identical objects (A1 and A2) for 3 min. On day 4, in the retention trial, rats were again allowed to explore a familiar object (A3) and a novel object (B) for 3 min. The object exploration was defined as rats' licking, sniffing or touching the object with forelimbs while sniffing. TAK-653 or AMPA was orally or intraperitoneally, respectively, 2 h or 0.5 h prior to the acquisition and the retention trials. The NDI was calculated using the following equation: novel object interaction/total interaction × 100 (%).
# [1] = system: MK-801-induced working memory deficit in rats; assay: Radial arm maze (RAM) test, MK-801-induced working memory deficit; assay type: in vivo, rat; conditions: given 0.5 h before MK-801 0.08 mg/kg, s.c.
# Method: RAM tests were performed using 9-week-old male Long-Evans rats as previously described with a minor modification. Each arm was 50 cm long, 10 cm wide and 40 cm high, and the maze was elevated 50 cm above the floor. Long-Evans rats were food-restricted to 85% of free-feeding body weight throughout the experimental period. Rats were well trained to collect pellets placed on the edge of each arm. The learning criterion for the testing session was defined as 2 errors or fewer for 2 consecutive days. In the testing session, each rat was placed on the maze facing the fixed arm at the start of the trial. The entry of rats into each arm was recorded in sequence until all pellets in the 8 arms were consumed, or 5 min had elapsed. […] Thirty min after dosing of vehicle or MK-801, rats were placed on the maze. Details are described in the Supplementary Information.
# The experiment was performed using 9-week-old male Long-Evans rats as described previously (Zajaczkowski et al., 1996) with a minor modification. Each arm was 50 cm long, 10 cm wide and 40 cm high, and the maze was elevated 50 cm above the floor. After being fasted for 24 h, male Long-Evans rats were food-restricted to 85% of free-feeding body weight on the first day of exposure to the maze and throughout the experimental period. The experiment consists of two sessions, training and testing session. In the training session, rats were habituated to the maze and then trained. Reinforcement consisted of 3 food pellets (45 mg each) in the food cup was used. On the first day of habituation to the maze, reinforcements were placed near the entrance and at the mid-point of each arm. Three rats were placed on the maze at one time and allowed to explore and consume the pellets for 8 min. On the second day of habituation, each rat was placed on the maze and allowed 5 min to consume the pellets placed at the mid-point and in the food cup at the end of each arm. From the third day, reinforcement was placed in the food cup at the end of each arm. Rats were well trained to collect pellets placed on the edge of each arm. The learning criterion for the testing session was defined as 2 errors or less for two consecutive days. In the previous day of the testing session, baseline level of performance was qualified to confirm that rats completed collecting all pellets placed in the 8 arms with two errors or less. In the testing session, each rat was placed on the maze facing away from the experimenter and facing the fixed arm at the start of the trial. The entry of rats into each arm was recorded in sequence. Rats were allowed to explore until all pellets in the 8 arms were consumed, or 5 min had elapsed. Entry into an arm previously chosen was counted as an error. […] […] Thirty min after dosing of vehicle or MK-801, rats were placed on the maze. Data were indicated as the mean ± SEM in the testing session.
compound,measurement,setting,value
"CC(C)S(=O)(=O)N[C@H]1COC[C@H]1Oc1ccc(-c2ccc(C#N)s2)cc1 [PF-04958242, N-{(3S,4S)-4-[4-(5-cyano-2-thienyl)phenoxy]tetrahydrofuran-3-yl}propane-2-sulfonamide]",Agonistic effect: Ca2+ increase in the absence of AMPA,AMPA-R,potently produced a Ca^2+ increase in the absence of AMPA
same,Dose improving visual learning and memory in NOR test,naïve rats,≥ 0.1 mg/kg
same,Working memory in the RAM test,[1],did not improve
